In patent US20100267561A1, “HERBICIDAL PYRIDAZINONE DERIVATIVES” (priority 2007, published 2010):

Experiments:
Format in all cases: in vivo
corn (Zea mays) = assay: Test A pre-/postemergence plant response
Method in brief: (§1)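 Seeds sown in loam–sand blend; test chemicals in non-phytotoxic solvent with surfactant applied preemergence as directed soil spray and, concurrently, postemergence to plants 2–10 cm tall at one- to two-leaf stage. Greenhouse ~10 days, then visual injury rating vs untreated controls on 0–100 scale (0 = no effect, 100 = complete control).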

[1] = system: giant foxtail (Setaria faberi); assay: Test A pre-/postemergence plant response
Method in brief: as §1

[2] = system: eastern black (E.B.) nightshade (Solanum ptycanthum); assay: Test B pre-/postemergence plant response; conditions: Preemergence; for Nightshade, E. B. plant response rating: 8 g ai/ha
Text: (§2) Seeds of plant species selected from blackgrass (Alopecurus myosuroides), downy bromegrass (Bromus tectorum), green foxtail (Setaria viridis), Italian ryegrass (Lolium multiflorum), wheat (Triticum aestivum), wild oat (Avena fatua), catchweed bedstraw (Galium aparine), bermudagrass (Cynodon dactylon), surinam grass (Brachiaria decumbens), cocklebur (Xanthium strumarium), corn (Zea mays), large crabgrass (Digitaria sanguinalis), woolly cupgrass (Eriochloa villosa), giant foxtail (Setaria faberii), goosegrass (Eleusine indica), johnsongrass (Sorghum halepense), kochia (Kochia scoparia), lambsquarters (Chenopodium album), morningglory (Ipomoea coccinea), eastern black (E.B.) nightshade (Solanum ptycanthum), yellow nutsedge (Cyperus esculentus), pigweed (Amaranthus retroflexus), common ragweed (Ambrosia elation), Russian thistle (Salsola iberica), soybean (Glycine max), common (oilseed) sunflower (Helianthus annuus), and velvetleaf (Abutilon theophrasti) were planted and treated preemergence with test chemicals formulated in a non-phytotoxic solvent mixture which included a surfactant.
(§3) At the same time, plants selected from these crop and weed species and also winter barley (Hordeum vulgare), canarygrass (Phalaris minor), chickweed (Stellaria media) and windgrass (Apera spica-venti) were treated with postemergence applications of some of the test chemicals formulated in the same manner. Plants ranged in height from 2 to 18 cm (1- to 4-leaf stage) for postemergence treatments.
(§4) Plant species in the flooded paddy test consisted of rice (Oryza sativa), umbrella sedge (Cyperus difformis), ducksalad (Heteranthera limosa) and barnyardgrass (Echinochloa crus-galli) grown to the 2-leaf stage for testing. At time of treatment, test pots were flooded to 3 cm above the soil surface, treated by application of test compounds directly to the paddy water, and then maintained at that water depth for the duration of the test. Treated plants and controls were maintained in a greenhouse for 13 to 15 days, after which time all species were compared to controls and visually evaluated. Plant response ratings, summarized in Table B, are based on a scale of 0 to 100 where 0 is no effect and 100 is complete control. A dash (-) response means no test result.

[3] = system: yellow nutsedge (Cyperus esculentus); assay: Test B pre-/postemergence plant response; conditions: Preemergence; for Nutsedge, Yellow plant response rating: 8 g ai/ha
Text: as §2, §3, §4

[4] = system: velvetleaf (Abutilon theophrasti); assay: Test B pre-/postemergence plant response; conditions: Preemergence; for Velvetleaf plant response rating: 8 g ai/ha
Text: as §2, §3, §4

[5] = system: common (oilseed) sunflower (Helianthus annuus); assay: Test B pre-/postemergence plant response; conditions: Preemergence; for Sunflower plant response rating: 8 g ai/ha
Text: as §2, §3, §4

soybean (Glycine max) = assay: Test B pre-/postemergence plant response; conditions: Preemergence; for Soybean plant response rating: 8 g ai/ha
Text: as §2, §3, §4

[6] = system: bermudagrass (Cynodon dactylon); assay: Test B pre-/postemergence plant response; conditions: Preemergence
Text: as §2, §3, §4

[7] = system: Italian ryegrass (Lolium multiflorum); assay: Test B pre-/postemergence plant response; conditions: Preemergence; for Ryegrass, Italian plant response rating: 8 g ai/ha
Text: as §2, §3, §4

[8] = system: wheat (Triticum aestivum); assay: Test B pre-/postemergence plant response; conditions: Preemergence; for Wheat plant response rating: 8 g ai/ha
Text: as §2, §3, §4

[9] = system: johnsongrass (Sorghum halepense); assay: Test B pre-/postemergence plant response; conditions: Preemergence
Text: as §2, §3, §4

[10] = Postemergence, 125 g ai/ha, 0 to 100 scale, 0 no effect, 100 complete control
[11] = Postemergence, 500 g ai/ha, 0 to 100 scale, 0 no effect, 100 complete control
[12] = Preemergence, 125 g ai/ha, 0 to 100 scale (0 no effect, 100 complete control)
[13] = Preemergence, 500 g ai/ha, 0 to 100 scale (0 no effect, 100 complete control)
[14] = 16 g ai/ha, scale 0 to 100 (0 no effect, 100 complete control)
[15] = 31 g ai/ha, 0 to 100 scale, 0 no effect, 100 complete control
[16] = Postemergence, 31 g ai/ha, 0 to 100 scale, 0 no effect, 100 complete control
[17] = Preemergence, 31 g ai/ha, 0 to 100 scale, 0 is no effect, 100 is complete control
[18] = 31 g ai/ha, scale 0 to 100 (0 no effect, 100 complete control)
[19] = 62 g ai/ha, 0 to 100 scale, 0 no effect, 100 complete control

## Cc1cc(-c2ccc(C(F)(F)F)cc2)nn1-c1c(O)c(C(C)C)nn(C)c1=O [Compound 27]
Corn (Zea mays); [10]
  Plant response rating, Corn: 50
Corn (Zea mays); [11]
  Plant response rating, Corn: 80
Corn (Zea mays); [12]
  Plant response rating, Corn: 20
Corn (Zea mays); [13]
  Plant response rating, Corn: 80
[1]; [10]
  Plant response rating, Foxtail, Giant: 50
[1]; [11]
  Plant response rating, Foxtail, Giant: 90
[1]; [12]
  Plant response rating, Foxtail, Giant: 80
[1]; [13]
  Plant response rating, Foxtail, Giant: 90
[2]; [14]
  Plant response rating, Nightshade, E. B.: 0
[2]; [15]
  Plant response rating, Nightshade, E. B.: 0
[2]; 62 g ai/ha, scale 0 to 100
  Plant response rating, Nightshade, E. B.: 0
[2]; scale 0 to 100
  Nightshade, E. B. plant response rating: 0
[3]; [14]
  Plant response rating, Nutsedge, Yellow: 0
[3]; [15]
  Plant response rating, Nutsedge, Yellow: 0
[3]; 62 g ai/ha, scale 0 to 100
  Plant response rating, Nutsedge, Yellow: 0
[3]; scale 0 to 100
  Nutsedge, Yellow plant response rating: 0
[4]; [14]
  Plant response rating, Velvetleaf: 0
[4]; [15]
  Plant response rating, Velvetleaf: 0
[4]; 62 g ai/ha, scale 0 to 100
  Plant response rating, Velvetleaf: 0
[4]; scale 0 to 100
  Velvetleaf plant response rating: 0
[5]; [14]
  Plant response rating, Sunflower: 0
[5]; [15]
  Plant response rating, Sunflower: 0
[5]; 62 g ai/ha, scale 0 to 100
  Plant response rating, Sunflower: 0
[5]; scale 0 to 100
  Sunflower plant response rating: 0
Soybean (Glycine max); [14]
  Plant response rating, Soybean: 0
Soybean (Glycine max); [15]
  Plant response rating, Soybean: 0
Soybean (Glycine max); 62 g ai/ha, scale 0 to 100
  Plant response rating, Soybean: 0
Soybean (Glycine max); scale 0 to 100
  Soybean plant response rating: 0
[6]; [14]
  Plant response rating, Bermudagrass: 0
[6]; [15]
  Plant response rating, Bermudagrass: 100
[6]; 62 g ai/ha, scale 0 to 100
  Plant response rating, Bermudagrass: 100
[7]; [14]
  Plant response rating, Ryegrass, Italian: 0
[7]; [15]
  Plant response rating, Ryegrass, Italian: 70
[7]; 62 g ai/ha, scale 0 to 100
  Plant response rating, Ryegrass, Italian: 95
[7]; scale 0 to 100
  Ryegrass, Italian plant response rating: 0
[8]; [14]
  Plant response rating, Wheat: 0
[8]; [15]
  Plant response rating, Wheat: 15
[8]; 62 g ai/ha, scale 0 to 100
  Plant response rating, Wheat: 45
[8]; scale 0 to 100
  Wheat plant response rating: 0
[9]; [14]
  Plant response rating, Johnsongrass: 40
[9]; [15]
  Plant response rating, Johnsongrass: 75
[9]; 62 g ai/ha, scale 0 to 100
  Plant response rating, Johnsongrass: 85
[9]; 8 g ai/ha, scale 0 to 100
  Johnsongrass plant response rating: 0

## Cc1ccc(-c2ccc(Cl)cc2)cc1-c1c(O)cnn(C)c1=O [Compound 46]
Corn (Zea mays); [16]
  Plant response rating, Corn: 20
Corn (Zea mays); [10]
  Plant response rating, Corn: 50
Corn (Zea mays); [17]
  Plant response rating, Corn: 0
Corn (Zea mays); [12]
  Plant response rating, Corn: 0
[1]; [16]
  Plant response rating, Foxtail, Giant: 20
[1]; [10]
  Plant response rating, Foxtail, Giant: 60
[1]; [17]
  Plant response rating, Foxtail, Giant: 50
[1]; [12]
  Plant response rating, Foxtail, Giant: 100
[2]; [14]
  Plant response rating, Nightshade, E. B.: 0
[2]; [18]
  Plant response rating, Nightshade, E. B.: 20
[2]; 62 g ai/ha, scale 0 to 100
  Plant response rating, Nightshade, E. B.: 100
[2]; scale 0 to 100
  Nightshade, E. B. plant response rating: 0
[3]; [14]
  Plant response rating, Nutsedge, Yellow: 0
[3]; [18]
  Plant response rating, Nutsedge, Yellow: 0
[3]; 62 g ai/ha, scale 0 to 100
  Plant response rating, Nutsedge, Yellow: 0
[3]; scale 0 to 100
  Nutsedge, Yellow plant response rating: 0
[4]; [14]
  Plant response rating, Velvetleaf: 0
[4]; [18]
  Plant response rating, Velvetleaf: 0
[4]; [19]
  Plant response rating, Velvetleaf: 0
[4]; scale 0 to 100
  Velvetleaf plant response rating: 0
[5]; [14]
  Plant response rating, Sunflower: 0
[5]; [18]
  Plant response rating, Sunflower: 0
[5]; 62 g ai/ha, scale 0 to 100
  Plant response rating, Sunflower: 0
[5]; scale 0 to 100
  Sunflower plant response rating: 0
Soybean (Glycine max); [14]
  Plant response rating, Soybean: 0
Soybean (Glycine max); [18]
  Plant response rating, Soybean: 0
Soybean (Glycine max); 62 g ai/ha, scale 0 to 100
  Plant response rating, Soybean: 0
Soybean (Glycine max); scale 0 to 100
  Soybean plant response rating: 0
[6]; 8 g ai/ha, scale 0 to 100 (0 no effect, 100 complete control)
  Bermudagrass plant response rating: 0
[6]; [14]
  Plant response rating, Bermudagrass: 20
[6]; [15]
  Plant response rating, Bermudagrass: 85
[6]; 62 g ai/ha, scale 0 to 100
  Plant response rating, Bermudagrass: 100
[7]; [14]
  Plant response rating, Ryegrass, Italian: 10
[7]; [18]
  Plant response rating, Ryegrass, Italian: 40
[7]; 62 g ai/ha, scale 0 to 100
  Plant response rating, Ryegrass, Italian: 100
[7]; scale 0 to 100
  Ryegrass, Italian plant response rating: 0
[8]; [14]
  Plant response rating, Wheat: 0
[8]; [18]
  Plant response rating, Wheat: 0
[8]; [19]
  Plant response rating, Wheat: 0
[8]; scale 0 to 100
  Wheat plant response rating: 0
[9]; [14]
  Plant response rating, Johnsongrass: 55
[9]; [15]
  Plant response rating, Johnsongrass: 85
[9]; 62 g ai/ha, scale 0 to 100
  Plant response rating, Johnsongrass: 90
